Assay results published in patent US20140024613A1, “Methods for Treating HCV” (AbbVie Inc., priority 2012, published 2014).

Assays:
[1] = parameters: species or system HCV patients (human); details: in vivo
Description: Ritonavir-boosted HIV protease inhibitors are associated with increases in serum lipids. See FIG. 1, where LPV refers to lopinavir, “/r” refers to co-administration with ritonavir (e.g., LPV/r refers to lopinavir co-administered with ritonavir). DRV refers to darunavir, ATV refers to atazanavir, FPV refers to fosamprenavir, FTC refers to emtricitabine, TDF refers to tenofovir disoproxil fumarate, […], 3TC refers to lamivudine, TC refers to total cholesterol, and TG refers to total triglycerides. These increase in cholesterol and triglycerides may be related to inhibition of the proteasome, which is involved in degradation of proteins related to lipid metabolism. However, the impact of ritonavir-boosted HCV treatments on lipid levels has not been studied. The purpose of this Example was to examine the lipid levels of HCV patients during 12 weeks of treatment with ritonavir-containing, interferon-free regimens. […]
Fasting total cholesterol (TC) and triglycerides (TG) were measured at each study visit. The number of subjects with baseline low or normal TC or TG who shifted to high TC or TG were calculated using NCEP cut-offs. Lipid fractions were not measured.

[2] = known effect of ritonavir, FDA approved Kaletra Drug Label May 2012; cited from earlier work

In the case of CC(C)c1nc(CN(C)C(=O)N[C@H](C(=O)N[C@@H](Cc2ccccc2)C[C@H](O)[C@H](Cc2ccccc2)NC(=O)OCc2cncs2)C(C)C)cs1 [ritonavir], the “total cholesterol and triglyceride levels” value [1] is given as “not elevated” and the “cholesterol and triglyceride levels” value [2] is given as “elevated cholesterol and triglyceride levels”.
